The source of these data is patent US20230066011A1, “PYRROLOPYRIMIDINE DERIVATIVE, AND PHARMACEUTICAL COMPOSITION FOR PREVENTING OR TREATING PROTEIN KINASE-RELATED DISEASE COMPRISING SAME AS ACTIVE INGREDIENT” (VORONOI CO., LTD., priority 2019, published 2023).

One experiment relates to TNF-α. The experiment in a line: Inhibition of LPS-induced TNF-α secretion of THP-1 monocytes (ELISA). The experiment is classed as cell-based, human. To be noted: Homo sapiens, THP-1; compound 0.5 μM, LPS 500 ng/mL, 24 hours; read-out: THP-1/TNF-α (% inhib). A digest of the protocol: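 THP-1 monocytes grown 16 h at 37 °C, pretreated 1 h with compound at final 0.5 μM, then stimulated with LPS at final 500 ng/mL for 24 h. IL-6 and TNF-α in culture supernatant measured by ELISA (OD 450 nm).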

Another experiment deals with human DYRK1A and tau. The experiment in a line: Inhibition of tau phosphorylation, ClariCELL Kinase Cell-Based Assay, HEK 293 cells expressing human DYRK1A and tau. To be noted: for inhibition at 1 µM: HEK293, read-out: % inhibition at 1 uM, tau phosphorylation, compound 1 uM; for inhibition at 0.25 µM / inhibition at 0.5 µM: HEK293, tau phosphorylation; for inhibition at 0.25 µM: compound 0.25 uM; for inhibition at 0.5 µM: compound 0.5 uM. A digest of the protocol: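 Cell-based service assay: HEK 293 cells transiently expressing human DYRK1A and tau were treated with compound and lysed. Released tau was plate-captured and its phosphorylation quantified by ELISA with a phospho-tau-specific antibody.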

The subject of another experiment is MDA-MB-468 cell line. Briefly: Inhibition of proliferation of MDA-MB-468 cancer cells (Cell Titer-Glo). The experiment is classed as cell-based. To be noted: Homo sapiens, MDA-MB-468, 72 hours. A digest of the protocol: (§1)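 Cells were grown in DMEM or RPMI, seeded at 2,000 cells/well and exposed to 11 threefold dilutions of compound (final 10 to 0.000169 μM) for 72 hours. Viability was read by Cell Titer-Glo luminescence after 10 min at room temperature, and GI50 was calculated from the luminescence data.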

The subject of a further experiment is MDA-MB-231 cell line. Briefly: Inhibition of proliferation of MDA-MB-231 cancer cells (Cell Titer-Glo). To be noted: Homo sapiens, 72 hours. The class given is cell-based. In short, it runs like this: as §1

Bounds are passed on as bounds.

In the case of `CCNc1nc(Nc2ccc(C(=O)N3CCC(N4CCOCC4)CC3)c3c2OCC3)nc2[nH]cc(C(F)(F)F)c12` [Example 438, (7-((4-(ethylamino)-5-(trifluoromethyl)-7H-pyrrolo[2,3-d]pyrimidin-2-yl)amino)-2,3-dihydrobenzo-furan-4-yl)(4-morpho-linopiperidin-1-yl)methanone], the inhibition at 0.5 µM with TNF-α is 10.8%. Further, in the experiment on human DYRK1A and tau, the inhibition at 1 µM turned out to be 86.8%, the inhibition at 0.25 µM was 46.3% and the inhibition at 0.5 µM amounted to 69.7%. Further, the GI50 with MDA-MB-468 cell line is 301 to 1000 nM.
With `COc1cc(S(=O)(=O)N2CCC(N3CCOCC3)CC2)ccc1Nc1nc(C2CC2)c2c(C(F)(F)F)c[nH]c2n1` [Example 226], the GI50 in the experiment with MDA-MB-231 cell line and in the experiment on MDA-MB-468 cell line was 301 to 1000 nM throughout.
As to `CNc1nc(Nc2ccc(C(=O)N3CCN(C4COC4)CC3)c3c2OCCO3)nc2[nH]cc(C(F)(F)F)c12` [Example 397, (8-((4-(methylamino)-5-(trifluoromethyl)-7H-pyrrolo[2,3-d]pyrimidin-2-yl)amino)-2,3-dihydrobenzo[b] [1,4]dioxin-5-yl) (4-(oxetan-3-yl)piperazin-1-yl)methanone], in the experiment on TNF-α, the inhibition at 0.5 µM came out at 5.6%. In the experiment on human DYRK1A and tau, the inhibition at 1 µM came to 52.8%, the inhibition at 0.25 µM came out at 12.9% and the inhibition at 0.5 µM was found to be 41.1%. The GI50 in the experiment on MDA-MB-468 cell line lay within 301 to 1000 nM.
On to `O=C(c1ccc(Nc2nc(NC3CC3)c3c(C(F)(F)F)c[nH]c3n2)c2c1OCCO2)N1CCN(C2COC2)CC1` [Example 405, (8-((4-(cyclo-propylamino)-5-(trifluoromethyl)-7H-pyrrolo[2,3-d]pyrimidin-2-yl)amino)-2,3-dihydrobenzo[b] [1,4]dioxin-5-yl) (4-(oxetan-3-yl)piperazin-1-yl)methanone], for which, in the experiment with human DYRK1A and tau, the inhibition at 1 µM is 70.7%, the inhibition at 0.25 µM was determined as 17.5% and the inhibition at 0.5 µM amounted to 44%. The GI50 in the experiment on MDA-MB-468 cell line is 301 to 1000 nM.
As to `COCCNc1nc(Nc2ccc(C(=O)N3CCN(C4COC4)CC3)c3c2OCCO3)nc2[nH]cc(C(F)(F)F)c12` [Example 403, (8-((4-((2-methoxyethyl)-amino)-5-(trifluoromethyl)-7H-pyrrolo[2,3-d]pyrimidin-2-yl)amino)-2,3-dihydrobenzo[b] [1,4]dioxin-5-yl) (4-(oxetan-3-yl)piperazin-1-yl)methanone], in the experiment on TNF-α, the inhibition at 0.5 µM amounted to 40.4%. For the same compound, the GI50 in the experiment with MDA-MB-468 cell line was 301 to 1000 nM.
In the case of `N#Cc1c[nH]c2nc(Nc3ccc(C(=O)N4CCOCC4)c4c3OCCO4)nc(NCC3CCCC3)c12` [Example 133, 4-((cyclopentylmethyl)amino)-2-((8-(morpholine-4-carbonyl)-2,3-dihydrobenzo[b][1,4]dioxin-5-yl)amino)-7H-pyrrolo[2,3-d]pyrimidine-5-carbonitrile], the GI50 with MDA-MB-231 cell line lay in the range of 101 to 300 nM; in the experiment with MDA-MB-468 cell line, 51 to 100 nM.
Consider `CNc1nc(Nc2ccc(C(=O)N3CC[C@H](N4CCOCC4)C3)c3c2OCC3)nc2[nH]cc(C(F)(F)F)c12` [Example 236, (S)-(7-((4-(methylamino)-5-(trifluoromethyl)-7H-pyrrolo[2,3-d]pyrimidin-2-yl)amino)-2,3-dihydrobenzofuran-4-yl)(3-morpholinopyrrolidin-1-yl)methanone], for which, in the experiment on TNF-α, the inhibition at 0.5 µM turned out to be 13.6%. In the experiment with human DYRK1A and tau, the inhibition at 1 µM turned out to be 67%, the inhibition at 0.25 µM turned out to be 34.1% and the inhibition at 0.5 µM was found to be 59.5%.
Turning to `COc1cc(S(=O)(=O)N2CCOCC2)ccc1Nc1nc(C2CC2)c2c(C#N)c[nH]c2n1` [Example 223, 4-cyclopropyl-2-((2-methoxy-4-(morpholinosulfonyl)phenyl)amino)-7H-pyrrolo[2,3-d]pyrimidine-5-carbonitrile], the GI50 in the experiment on MDA-MB-231 cell line and with MDA-MB-468 cell line was 301 to 1000 nM in each case.
Consider `CCN1CCP(=O)(c2ccc(Nc3nc(C4CC4)c4c(C#N)c[nH]c4n3)c(OC)c2)CC1` [Example 261], for which the GI50 with MDA-MB-468 cell line lay within 301 to 1000 nM.
With `CNc1nc(Nc2ccc(C(=O)N3CCC(N4CCOCC4)CC3)c3c2OCC3)nc2[nH]cc(C(F)(F)F)c12` [Example 217, (7-((4-(methylamino)-5-(trifluoromethyl)-7H-pyrrolo[2,3-d]pyrimidin-2-yl)amino)-2,3-dihydrobenzofuran-4-yl)(4-morpholinopiperidin-1-yl)methanone], in the experiment with human DYRK1A and tau, the inhibition at 1 µM came out at 77.9%, the inhibition at 0.25 µM was found to be 32% and the inhibition at 0.5 µM came to 63.7%. Also, the GI50 in the experiment on MDA-MB-468 cell line was 301 to 1000 nM.
`CCNc1nc(Nc2ccc(C(=O)N3CCC(N4CCOCC4)CC3)c3c2OCC3)nc2[nH]cc(C#N)c12` [Example 347, 4-(ethylamino)-2-((4-(4-morpholino-piperidine-1-carbonyl)-2,3-dihydro-benzofuran-7-yl)amino)-7H-pyrrolo[2,3-d]pyrimidine-5-carbonitrile]: the inhibition at 0.5 µM in the experiment on TNF-α was determined as 13.3%. In the experiment with human DYRK1A and tau, the inhibition at 1 µM stood at 51.5%, the inhibition at 0.25 µM was found to be 24.7% and the inhibition at 0.5 µM was 42.6%.
`O=C(c1ccc(Nc2nc(NC3CCCCC3)c3c(C(F)(F)F)c[nH]c3n2)c2c1OCCO2)N1CCN(C2COC2)CC1` [Example 415, (8-((4-(cyclo-hexylamino)-5-(trifluoromethyl)-7H-pyrrolo[2,3-d]pyrimidin-2-yl)amino)-2,3-dihydrobenzo[b] [1,4]dioxin-5-yl) (4-(oxetan-3-yl)piperazin-1-yl)methanone] registered a GI50 in the experiment with MDA-MB-468 cell line of 101 to 300 nM.
Regarding `COc1cc(P2(=O)CCN(C3CCOCC3)CC2)ccc1Nc1nc(NC2CC2)c2c(C(F)(F)F)c[nH]c2n1` [Example 435, 4-(4-((4-(cyclo-propylamino)-5-(trifluoromethyl)-7H-pyrrolo[2,3-d]pyrimidin-2-yl)amino)-3-methoxyphenyl)-1-(tetrahydro-2H-pyran-4-yl)-1,4-azaphosphinane 4-oxide], in the experiment with TNF-α, the inhibition at 0.5 µM amounted to 6.6%. In the experiment with human DYRK1A and tau, the inhibition at 1 µM amounted to 73.4%, the inhibition at 0.25 µM is 22.7% and the inhibition at 0.5 µM was 55.5%.
Consider `COc1cc(S(=O)(=O)N2CCC(N3CCOCC3)CC2)ccc1Nc1nc(C2CC2)c2c(C#N)c[nH]c2n1` [Example 224, 4-cyclopropyl-2-((2-methoxy-4-((4-morpholinopiperidin-1-yl)sulfonyl)phenyl)amino)-7H-pyrrolo[2,3-d]pyrimidine-5-carbonitrile], for which, in the experiment with human DYRK1A and tau, the inhibition at 1 µM stood at 39.9%, the inhibition at 0.25 µM is 3.6% and the inhibition at 0.5 µM came to 15.6%. In addition, the GI50 in the experiment with MDA-MB-468 cell line is less than 50 nM.
As for `CNc1nc(Nc2cc(F)c(S(=O)(=O)N3CCC(N4CCOCC4)CC3)cc2OC)nc2[nH]cc(C(F)(F)F)c12` [Example 231, N^2-(5-fluoro-2-methoxy-4-((4-morpholinopiperidin-1-yl)sulfonyl)phenyl)-N^4-methyl-5-(trifluoromethyl)-7H-pyrrolo[2,3-d]pyrimidine-2,4-diamine], the GI50 in the experiment on MDA-MB-231 cell line is 101 to 300 nM; in the experiment on MDA-MB-468 cell line, 301 to 1000 nM.
On the same counts, the results for `CCNc1nc(Nc2cc(F)c(S(=O)(=O)N3CCC(N4CCOCC4)CC3)cc2OC)nc2[nH]cc(C(F)(F)F)c12` [Example 232, N^4-ethyl-N^2-(5-fluoro-2-methoxy-4-((4-morpholinopiperidin-1-yl)sulfonyl)phenyl)-5-(trifluoromethyl)-7H-pyrrolo[2,3-d]pyrimidine-2,4-diamine] are 301 to 1000 nM and 301 to 1000 nM.
Turning to `COCCNc1nc(Nc2ccc(C(=O)N3CCC(N4CCOCC4)CC3)c3c2OCC3)nc2[nH]cc(C(F)(F)F)c12` [Example 443, (7-((4-((2-methoxyethyl)amino)-5-(trifluoromethyl)-7H-pyrrolo[2,3-d]pyrimidin-2-yl)amino)-2,3-dihydrobenzo-furan-4-yl)(4-morpho-linopiperidin-1-yl)methanone], the inhibition at 0.5 µM with TNF-α is 10.8%. The compound further registered a GI50 in the experiment with MDA-MB-468 cell line of 301 to 1000 nM.
Consider `N#Cc1c[nH]c2nc(Nc3ccc(C(=O)N4CCC(N5CCOCC5)CC4)c4c3OCCO4)nc(C3CC3)c12` [Example 221, 4-cyclopropyl-2-((8-(4-morpholinopiperidine-1-carbonyl)-2,3-dihydrobenzo[b][1,4]dioxin-5-yl)amino)-7H-pyrrolo[2,3-d]pyrimidine-5-carbonitrile], for which the GI50 in the experiment with MDA-MB-468 cell line was in the range of 301 to 1000 nM.
Consider `O=C(c1ccc(Nc2nc(NCC3CC3)c3c(C(F)(F)F)c[nH]c3n2)c2c1CCO2)N1CCC(N2CCOCC2)CC1` [Example 461, (7-((4-((cyclo-propylmeth-yl)amino)-5-(trifluoromethyl)-7H-pyrrolo[2,3-d]pyrimidin-2-yl)amino)-2,3-dihydrobenzo-furan-4-yl)(4-morpho-linopiperidin-1-yl)methanone], for which the inhibition at 0.5 µM in the experiment with TNF-α is 2.3%. Besides, in the experiment on human DYRK1A and tau, the inhibition at 1 µM was 72.2%, the inhibition at 0.25 µM is 18.2% and the inhibition at 0.5 µM worked out at 46.9%.
On the same counts, the results for `CCNc1nc(Nc2ccc(C(=O)N3CC[C@H](N4CCOCC4)C3)c3c2OCC3)nc2[nH]cc(C(F)(F)F)c12` [Example 475, (S)-(7-((4-(ethylamino)-5-(trifluoromethyl)-7H-pyrrolo[2,3-d]pyrimidin-2-yl)amino)-2,3-dihydrobenzo-furan-4-yl)(3-morpholino-pyrrolidin-1-yl)methanone] are 4.7%, 86.8%, 42.6% and 65.3%.
